# In patent US4826962A, “Tetrachlororaffinose and its use in the preparation of sucralose” (Tate & Lyle Public Limited Company, priority 1985, dated 1989):
# Key:
# [1] = Solubility in solvents pre-saturated with aqueous buffer at 55° C.; format: physicochemical
# [2] = system: α-Galactosidase in the form of pelletized cells of M. vinacea var raffinoseutilizer (ATCC 20034); assay: Hydrolysis of TCR to sucralose in organic media; format: biochemical; details: for Conversion of TCR into sucralose: 24 hours, 20 mM TCR, 55° C.
# Description: The TCR of Example 1 (23 mg) was placed in a 5 ml screw-top vial and 2 ml of an organic solvent which had been pre-saturated with aqueous buffer (sodium acetate, 50 mM, pH 5.0) was added to give a 20 mM (1.15% w/v) solution. α-Galactosidase in the form of pelletized cells of M. vinacea var raffinoseutilizer (ATCC 20034) was added (100 mg) to each vial and the reactions were initiated by adding 1% v/v aqueous buffer, vortexing for 30 seconds, and placing the vial in a water-bath shaker at 55° C. and 100 rpm. Periodically, aliquots were removed and 25 μl were injected into an Hplc system fitted with a reverse phase (Waters Dextropak C18) column, using 20% aqueous acetonitrile as eluant, to measure the sucralose produced and the residual TCR. In the figure the progress of the hydrolysis of TCR into sucralose with time is plotted for aqueous buffer (curve 1) and for three solvents, methyl isobutyl ketone (2), ethyl acetate (3) and n-butanol (4). The hydrolysis reaction in methyl isobutyl ketone and in aqueous buffer were similar. Lower rates and conversions were obtained in ethyl acetate and n-butanol, respectively. In all cases, greater than 50% conversion in 24 hours was observed, with 70% conversions in aqueous buffer and methyl isobutyl ketone.
# The reason that the time-course for TCR hydrolysis in ethyl acetate was lower than that in aqueous buffer at 20 mM TCR was due to the higher Km of TCR in ethyl acetate and not due to a lower catalytic activity. When 50 mM TCR was used, the rates and conversions of TCR hydrolysis in ethyl acetate were similar to those in aqueous buffer.
# [3] = system: Melibiase in the form of pelletised cells of Mortierella vinacea var raffinoseutilizer (ATCC 20034); assay: Hydrolysis of TCR to sucralose by melibiase pellets in aqueous buffer; format: biochemical; details: for TCR hydrolysed: 55° C., pH 5.0, 1% (w/v) TCR
# Description: The tetrachlorogalactoraffinose of Example 1 (20 mg) was placed in a screw-top bottle together with 0.1M-citrate-phosphate buffer (pH 5.0) (2 ml) to give a 1% (w/v) solution. This level of water was maintained during the following incubation period by addition of more water when required.
# Melibiase in the form of pelletised cells of Mortierella vinacea var raffinoseutilizer (ATCC 20034) (supplied by Hokkaido Sugar Co, Japan) was added (10 mg) and the mixture was incubated at 55° C. for up to 100 hours. The degree of hydrolysis was followed periodically by t.l.c. analysis of withdrawn 250 μl aliquots eluted with ethyl acetate:ethanol:water (45:5:1) or by hplc on a Waters Dextropak Cl8 reverse phase column eluted by acetonitrile 20% (v/v) and products measured using a refractive index detector. The result is plotted in FIG. 1. It was found, for example, that about 53% had been hydrolysed after 48 hours and about 70% after 90 hours. The products were separated by chromatography and, in addition to sucralose, the presence of 6-chlorogalactose and TCR was detected. TCR can be used at up to 15% (w/v) in this system.
# [4] = system: α-galactosidase of Absidia griseola; assay: TCR hydrolysis by cell debris of α-galactosidase organisms; format: biochemical
# Description: (§1) Organisms reported to have an α-galactosidase activity were obtained from the ATCC. They were grown in 500 ml shake flasks containing 100 ml of a mineral salts medium (Jayasuria, 1955 Journal of General Microbiology 12 419-428) containing 1 g/l yeast extract plus 5 g/l raffinose at 30° C. Cells were collected by centrifugation (5000 rev/min for 10 min) in the late exponential phase of growth, resuspended in 5 times their volume of citrate-phosphate buffer pH 5.0, and maintained at 0° C. in an ice bath and were disrupted by 3×20 second bursts in a MSE sonicator (Dawe Soniprobe Type 1130A) at maximum output. The resulting suspension was centrifuged (17,000 rev/min) for 30 minutes and both debris and supernatant assayed for α-galactosidase activity in units per g. dry weight of cell debris using p-nitrophenyl α-D-galactopyranoside (Sigma). Virtually no enzyme activity was detected in the supernatant. Cultures which were positive were then tested for TCR hydrolysis as in Example 4 and the results given in mg sucralose per g dry weight of cell debris per hour (for 70% conversion).
# [5] = system: α-galactosidase of Aspergillus niger; assay: as above; format: biochemical; details: Aspergillus niger ATCC 36220, for 70% conversion
# Description: as §1
# [6] = system: α-galactosidase of Talaromyces thermophilus; assay: as above; format: biochemical; details: Talaromyces thermophilus ATCC 16461, for 70% conversion
# Description: as §1
# [7] = system: α-galactosidase of Mortierella vinacea; assay: as above; format: biochemical
# Description: as §1
# [8] = system: α-galactosidase of Circinella muscae; assay: as above; format: biochemical
# Description: as §1
# [9] = system: α-galactosidase of Aspergillus awamori; assay: as above; format: biochemical; details: Aspergillus awamori ATCC 44733, for 70% conversion
# Description: as §1
# [10] = system: α-galactosidase of Saccharomyces uvarum; assay: as above; format: biochemical; details: Saccharomyces uvarum ATCC 42367, for 70% conversion
# Description: as §1
# [11] = sweeter than sucrose; cited from earlier work
# [12] = cited from earlier work
# [13] = Stability of sucralose under the enzyme treatment conditions; format: physicochemical; details: about 55° C., pH 5.0
# Description: In both aqueous and organic systems, the treatment should naturally be at the optimum temperature and pH for the enzyme which, for the M. vinacea melibiase is about 55° C. and pH 4.5-5.5. In water-saturated organic solvents this refers to the pH of the aqueous buffer. At this temperature and at a pH of 5.0, we find that the sucralose produced is not degraded.
# [14] = organic solvent or mixture, ethyl acetate pre-saturated with aqueous buffer, 55° C.
# [15] = organic solvent or mixture, methyl isobutyl ketone pre-saturated with aqueous buffer, 55° C.
# [16] = organic solvent or mixture, n-butanol pre-saturated with aqueous buffer, 55° C.
# [17] = organic solvent or mixture, n-octanol pre-saturated with aqueous buffer, 55° C.
# [18] = organic solvent or mixture, nitrobenzene pre-saturated with aqueous buffer, 55° C.
smiles,measurement,setting,value
"OC1C(CCl)OC(OCC2OC(OC3(CCl)OC(CCl)C(O)C3O)C(O)C(O)C2Cl)C(O)C1O (centres unmarked) [TCR, 4,1',6',6""-tetrachloro-4,1',6',6""-tetradeoxygalactoraffinose]",solubility,[1]; aqueous buffer,150 mg/mL
same,solubility,[1]; [14],> 500 mg/mL
same,solubility,"[1]; organic solvent or mixture, hydrophilic water-immiscible solvents (ethyl acetate, n-butanol, methyl isobutyl ketone)",> 500 mg/mL
same,solubility,"[1]; organic solvent or mixture, hydrophobic water-immiscible solvents (e.g. n-octanol, nitrobenzene, butyronitrile)",< 50 mg/mL
same,solubility,[1]; [15],> 500 mg/mL
same,solubility,[1]; [16],> 500 mg/mL
same,solubility,[1]; [17],50 mg/mL
same,solubility,[1]; [18],< 20 mg/mL
same,solubility,"[1]; water (aqueous buffer), 55° C.",150 mg/mL
same,Conversion of TCR into sucralose,[2]; aqueous buffer,70%
same,Conversion of TCR into sucralose,[2]; ethyl acetate,greater than 50%
same,Conversion of TCR into sucralose,[2]; methyl isobutyl ketone,70%
same,Conversion of TCR into sucralose,[2]; n-butanol,greater than 50%
same,TCR hydrolysis in highly water-miscible solvents,"[2]; dioxane, acetone, methanol, THF, even with 30% v/v aqueous buffer",unable to support hydrolysis
same,Kcat,[2]; ethyl acetate,56.3 mg sucralose/g pellets/h
same,Km,[2]; ethyl acetate,16.4 mM
same,Rate of reaction on TCR relative to raffinose,[3]; M. vinacea melibiase (Hokkaido Sugar Co.),only a few percent of the rate on raffinose itself
same,TCR hydrolysed,[3]; after 48 hours,about 53%
same,TCR hydrolysed,[3]; after 90 hours,about 70%
same,Kcat,[3]; aqueous solution,52.5 mg per g enzyme per hour
same,Km,"[3]; aqueous solution, read-out: Michaelis constant (Km)",5.8 mM
same,TCR Hydrolysis,"[4]; Absidia griseola ATCC 20430, for 70% conversion",0 mg sucralose per g dry weight
same,TCR Hydrolysis,"[4]; Absidia griseola ATCC 20431, for 70% conversion",< 0.2 mg sucralose per g dry weight
same,TCR Hydrolysis,"[4]; Absidia griseola ATCC 22618, for 70% conversion",0 mg sucralose per g dry weight
same,TCR Hydrolysis,[5],0.49 mg sucralose per g dry weight
same,TCR Hydrolysis,[6],0 mg sucralose per g dry weight
same,TCR Hydrolysis,"[7]; Mortierella vinacea ATCC 20034, for 70% conversion",1.09 mg sucralose per g dry weight
same,TCR Hydrolysis,"[7]; Mortierella vinacea ATCC 34195, for 70% conversion",1.33 mg sucralose per g dry weight
same,TCR Hydrolysis,"[7]; Mortierella vinacea ATCC 42425, for 70% conversion",1.06 mg sucralose per g dry weight
same,TCR Hydrolysis,"[7]; Mortierella vinacea Hokkaido (pellets), for 70% conversion",4.3 mg sucralose per g dry weight
same,TCR Hydrolysis,"[8]; Circinella muscae ATCC 16008, for 70% conversion",1.12 mg sucralose per g dry weight
same,TCR Hydrolysis,"[8]; Circinella muscae ATCC 20394, for 70% conversion",< 0.2 mg sucralose per g dry weight
same,TCR Hydrolysis,"[8]; Circinella muscae ATCC 22337, for 70% conversion",0 mg sucralose per g dry weight
same,TCR Hydrolysis,[9],0 mg sucralose per g dry weight
same,TCR Hydrolysis,[10],0 mg sucralose per g dry weight
"OC[C@H]1O[C@H](O[C@]2(CCl)O[C@H](CCl)[C@@H](O)[C@@H]2O)[C@H](O)[C@@H](O)[C@H]1Cl [sucralose, 4,1',6'-trichloro-4,1',6'-trideoxygalactosucrose]",solubility,[1]; [14],57 mg/mL
same,solubility,[1]; [15],60 mg/mL
same,solubility,[1]; [16],> 500 mg/mL
same,solubility,[1]; [17],< 10 mg/mL
same,solubility,[1]; [18],< 10 mg/mL
same,solubility,"[1]; water (aqueous buffer), 55° C.",300 mg/mL
same,Sweetness relative to sucrose,[11],about 600 X
same,Degradation in vivo,[12],not degraded in vivo
same,Degradation of sucralose produced,[13],not degraded
